Where “and” joins values, the source holds several entries; their conditions need not be identical. Equal entries are not always repeated. Where two headings read alike, the source gives them in different places.
Columns and labels:
[1] = system: Geobacter sulfurreducens PCA; experiment: Bioreactor Hg^0 production and growth of Geobacter sulfurreducens PCA supplied with Hg^II; assay type: cell-based; conditions: for Cumulative Hg(0) production / Final O.D. 600 nm: live cells, 28 C, Hg 250 pM
Source text: Geobacter sulfurreducens PCA cells were revived from cryostock and grown in defined medium (herein referred to as GSMM) according to previous work (Schaefer, J. K.; Morel, F. M. M., High methylation rates of mercury bound to cysteine by Geobacter sulfurreducens. Nature Geoscience 2009, 2, (2), 123-126) with the following modification: resazurin, the color indicator used to monitor anoxia, was removed to avoid issues with abiotic Hg reduction given that resazurin is a reducing agent. Cells were grown chemotrophically in the dark at 28° C. Cells took between 10 to 12 days to re-initiate growth, as such, cultures were maintained by re-inoculating fresh GSMM every 4 days with a 10% inoculum in a final volume of 10 mL. Upon reaching late exponential phase, a 10% inoculum was used to start cultures in GSMM with a final volume of 75 mL destined for the bioreactor. Upon reaching late exponential phase a 10% inoculum was used to inoculate the bioreactor where cells were supplied with Hg^II in 560 mL of PYEΔSO4^2− or GSMM medium (see Table 1).

[2] = system: Heliobacterium modesticaldum Ice1; experiment: microbe, parasite or virus in culture
Description: The following strains were used in these studies: Heliobacterium modesticaldum Ice1, Clostridium acetobutylicum ATCC 824, Geobacter sulfurreducens PCA and Escherichia coli K-12. For phototrophic growth of H. modesticaldum, cells were supplied with constant illumination at 80 μmolphoton·m^−2·s^−1 at 50° C. whereas chemotrophic cells were grown at the same temperature in the dark in line with previous work.^32 C. acetobutylicum and E. coli were grown at 37° C. whereas G. sulfurreducens was grown at 28° C., all chemotrophically in the dark.
[…] Hg growth assays were carried out under the same phototrophic and chemotrophic conditions mentioned above.
Stock solutions used in cell cultures were all prepared following anaerobic techniques. […] For DMSO controls, the DMSO solution was bubbled with N2 prior to being added to the bioreactor; final concentration of DMSO in the reactor was 2.8 mM. Sodium nitrite stocks were prepared to a final concentration of 10 mM in ultra pure miliQ, filter-sterilized, sparged with N2 and stored at 4° C. in the dark; final concentration of NO2^− in the reactor was 10 μM. For experiments where HCO3^− was supplied, a stock solution of 1 M was prepared by dissolving NaHCO3 in ultra pure MiliQ and autoclaving for 30 minutes at 121° C. under 80% N2/20% CO2 atmosphere prior to use. Fumarate stock solutions were prepared at a final concentration of 40 mM in ultra pure miliQ, filter sterilized (0.2 μm pore size), bubbled with N2, sealed and crimped shut in sterile serum bottles prior to use. All equipment used in the anaerobic glove box was conditioned for at least 48 hours prior to use.
For Heliobacterium modesticaldum Ice1, new cultures were started from a cryostock for every bioreactor experiment. Cells were revived in DSMZ medium 655 (herein referred to as PYE) previously used to isolate H. modesticaldum (Kimble, L. K.; Mandelco, L.; Woese, C. R.; Madigan, M. T., Heliobacterium modesticaldum, sp. nov., a thermophilic heliobacterium of hot springs and volcanic soils. Archives of Microbiology 1995, 163, (4), 259-267). Cultures started from cryostock were grown phototrophically in PYE with an incandescent light source and constant illumination of 80 μmol photon m^−2s^−1 at 50° C. in line with previous work (Kimble, above) until reaching early stationary phase. Afterwards, a 10% inoculum was used to re-inoculate 10 mL of fresh PYE and cells were grown phototrophically (with the same light intensity) or chemotrophically (in the dark) at 50° C. These cultures were used to establish finely resolved growth curves and Hg growth assays (see FIGS. 1 and 2).
For experiments testing the effect of carbon source on Hg^0 production some modifications to the initial PYE medium growth protocol were made. Phototrophic H. modesticaldum cells were grown with pyruvate, acetate, acetate+HCO3^− and/or yeast extract alone as a carbon source. Cells were grown until late exponential phase before being subsampled to supply a 10% inoculum for cultures with a final volume 75 mL destined for the bioreactor and grown under the same conditions (see Table 1). […] Upon reaching late exponential phase, cells were inoculated into the bioreactor as a 10% inoculum in a final volume of 560 mL of media with the desired carbon source treatment.
Please refer to the methods section of Gregoire and Poulain (2016)^21 (which is herein incorporated by reference in its entirety) for a schematic of the bioreactor setup employed and the Hg^0 sampling methodology. Note that phototrophic bioreactor experiments were carried out using a 200 W incandescent clear light bulb at a constant illumination at 20 μmolphoton·m^−2·s^−1.

[3] = system: Heliobacterium modesticaldum Ice1; experiment: Hg growth assays with Heliobacterium modesticaldum Ice1; assay type: cell-based; conditions: 500 nM HgCl2 supplied as two doses of 250 nM 24 hours apart, phototrophic and chemotrophic cells in PYE
Description: One-way ANOVAs were performed for phototrophic and chemotrophic Hg exposure assays using R statistical software (R Core Team R: A Language and Environment for Statistical Computing, R Foundation for Statistical Computing: 2014). In the event of detecting a significant difference, assumptions of constant variance and normality were verified with the Brusch-Pagan test and the Shapiro-Wilks test, respectively, with the significance thresholds set to p=0.05 for each test. Significant differences were then identified using the Tukey HSD test. The sample size employed for growth assays was n=3 per treatment. All assumptions were passed for significant differences and these values are reported in the Brief Description of the Drawings (see FIG. 4). A non-linear regression model was fit to the cumulative Hg^0 production data as a function of pyruvate concentration using Sigmaplot software. In this instance, a natural logarithmic function was fit to a data set of n=8. Given the significant fit, assumptions of constant variance and normality were verified with the Sigmaplot software with the significant threshold set to p=0.05 for each test.

[4] = system: Clostridium acetobutylicum ATCC 824; experiment: Bioreactor Hg^0 production and growth of Clostridium acetobutylicum ATCC 824 supplied with Hg^II; assay type: cell-based; conditions: chemotrophy
Description: For Clostridium acetobutylicum ATCC 824, new cultures were started for every bioreactor experiment. Cells were revived in DSMZ medium 104b (herein referred to as PYX). Cells were grown in the dark at 37° C. until reaching early stationary phase after which point they were rotated as a 1% inoculum in a final volume of 10 mL into fresh PYX. Cells were grown to late exponential phase, and re-inoculated as a 1% inoculum in a final volume of 75 mL of PYX in cultures destined for the bioreactor. Experiments were performed in PYE where all SO4^2− salts were substituted with chloride salts (PYEΔSO4^2−) to avoid competition between Hg^II reduction and SO4^2− reduction. Cells were also supplied with Hg^II in DSMZ medium 104b to account for the effect of suboptimal growth medium (see Table 1 and Table 3). […] The initial volume of medium in the bioreactor was corrected to ensure that identical volumes were maintained throughout all experiments.

[5] = chemotrophy, pyruvate 20 mM + YE 4 g L-1, fumarate 40 mM
[6] = live cells, phototrophy, 50 C, acetate 30 mM + YE 4 g L-1, HCO3- 10 mM, Hg 250 pM
[7] = live cells, 37 C, pyruvate 20 mM + YE 4 g L-1 (PYEΔSO4^2-), NTZ 10 μM + DMSO 2.8 mM, Hg 250 pM
[8] = chemotrophy, pyruvate 20 mM + YE 4 g L-1 (PYEΔSO4^2-), NTZ 10 μM + DMSO 2.8 mM

## O=C(O)/C=C/C(=O)O [Fumarate]
[1]; in the presence of fumarate
  Cell growth: able to grow
[1]; chemotrophy, acetate 10 mM (optimal growth medium), fumarate 40 mM
  Cumulative Hg(0) production: 19.81 pmol and 21.48 pmol
[1]; [5]
  Cumulative Hg(0) production: 6.65 pmol
  Final O.D. 600 nm: 0.185
[1]; with vs without fumarate as terminal electron acceptor, pyruvate + YE
  Decrease of Hg^0 production in the presence of fumarate: 50%

## O=C([O-])O.[Na+] [HCO3—, NaHCO3]
[2]; [6]
  Cumulative Hg(0) production: 43.31 pmol and 42.50 pmol
  Final O.D. 600 nm: 0.02 and 0.039

## [Cl][Hg][Cl] [Hg^II, HgCl2]
[3]
  Physiological advantage / growth (rate, yield) with sublethal Hg: No physiological advantage was observed except for a small increase in the yield of phototrophically grown cells
[2]; 2 nM Hg, phototrophically grown cells, 48 hours
  Cell health at increased mercury concentration: unaffected

## O=N[O-].[Na+] [NO2, Sodium nitrite]
[2]
  Cumulative Hg(0) production: 53.36 ± 0.13 pmol and 53.47 pmol and 53.66 pmol
  Final O.D. 600 nm: 0.034 and 0.023
  Increase in the amount of Hg^0 produced: 30%

## CC(=O)Oc1ccccc1C(=O)Nc1ncc([N+](=O)[O-])s1 [NTZ, nitazoxanide]
[4]; NTZ 10 μM vs DMSO control
  Decrease of Hg^0 production in the presence of NTZ: 98%
[4]; [7]
  Cumulative Hg(0) production: 1.20 pmol
  Final O.D. 600 nm: 0.146
[2]; Heliomicrobium modesticaldum, ICE1, read-out: Inhibition (decrease) of chemotrophic Hg^0 production compared to controls
  inhibition at 10 µM: 88%
[2]; live cells, chemotrophy (dark), 50 C, pyruvate 20 mM + YE 4 g L-1, NTZ 10 μM + DMSO 2.8 mM, Hg 250 pM
  Final O.D. 600 nm: 0.065 and 0.057
[2]; phototrophic cells, NTZ 10 μM
  Cell growth: did not grow
  Lag: peak of Hg^0 production occurring later than previously observed: 11 h
[1]; chemotrophy, NTZ 10 μM vs DMSO control
  Decrease of Hg^0 production in the presence of NTZ: 62%
[1]; [8]
  Cumulative Hg(0) production: 3.19 pmol
  Final O.D. 600 nm: 0.041

Reference: US10759683B2, “Methods for removing mercury contaminant from aqueous solutions, and bioreactors therefor” (priority 2018, dated 2020)
